Measurements reported in patent US6576634B1, “Pharmaceutical or dietetic preparation for improvement of fertility and sperm quality” (N.V. Nutricia, priority 2000, dated 2003).

Key:
[1] = tested on: men suffering from round cell idiopathic syndrome; conditions: 15 mg per day during 3 months; men with round cell idiopathic syndrome; cited from earlier work
[2] = tested on: fertile men and subfertile men; test: Spermcount after oral administration of folic acid, zinc or both, versus initial spermcount; format: in vivo; design: key to Percentage improvement of spermcount after administration of active agents, compared to initial spermcount: 0 means about neutral; The number of + signs indicates activity; ++: The number of + signs indicates activity; +++: The number of + signs indicates activity; +++(+): The number of + signs indicates activity; conditions: for Percentage improvement of spermcount after administration of active agents, compared to initial spermcount: daily administration during 5 months (table head; text says three months)
spermatozoa = conditions: 10 mg over 30 days; cited from earlier work
[3] = tested on: males that suffer from idopathic oligospermia; conditions: 220 mg zinc sulphate; idiopathic oligospermia; cited from earlier work
fowl seminal plasma = conditions: zinc concentration above 3 μg per ml storage medium; cited from earlier work

Structure (SMILES): Nc1nc(=O)c2c([nH]1)NCC(CNc1ccc(C(=O)N[C@@H](CCC(=O)O)C(=O)O)cc1)N2C=O (mixture of isomers) [folinic acid]
- spermatozoa number and fertility [1]: increases spermatozoa number and fertility

Structure (SMILES): Nc1nc2ncc(CNc3ccc(C(=O)N[C@@H](CCC(=O)O)C(=O)O)cc3)nc2c(=O)[nH]1 [5 mg folate, folic acid]
- Percentage improvement of spermcount after administration of active agents, compared to initial spermcount ([2]; fertile men): 0
- sperm count ([2]; folate alone, especially subfertile men): increases sperm count
- Percentage improvement of spermcount after administration of active agents, compared to initial spermcount ([2]; subfertile men): +++
- sperm counts and motility and DNA content of spermatozoa (spermatozoa): did not result in an increase

Structure (SMILES): O=S(=O)([O-])[O-].[Zn+2] [15 mg zinc, zinc sulphate]
- sperm counts ([2]; both groups, so also in fertile men): increases sperm counts in both groups
- Percentage improvement of spermcount after administration of active agents, compared to initial spermcount ([2]; fertile men): +
- Percentage improvement of spermcount after administration of active agents, compared to initial spermcount ([2]; subfertile men): ++
- sperm and number of spermatozoa having normal morfology and motility [3]: improved significantly
- fertility of fowl seminal plasma (fowl seminal plasma): reduced the fertility
